Data: ChEMBL document CHEMBL1131937 (Bioorg Med Chem Lett, 1999)

Key:
[1] = biological target: T1, Adrenergic receptor alpha-2 (Rattus norvegicus, UniProt P22086+P19328+P22909); experiment: Inhibition of [3H]clonidine binding to the rat alpha-2-adrenoceptor; type: protein assay; parameters: Log Ki: unit not given here
T1 sequence (P22086 whole entry): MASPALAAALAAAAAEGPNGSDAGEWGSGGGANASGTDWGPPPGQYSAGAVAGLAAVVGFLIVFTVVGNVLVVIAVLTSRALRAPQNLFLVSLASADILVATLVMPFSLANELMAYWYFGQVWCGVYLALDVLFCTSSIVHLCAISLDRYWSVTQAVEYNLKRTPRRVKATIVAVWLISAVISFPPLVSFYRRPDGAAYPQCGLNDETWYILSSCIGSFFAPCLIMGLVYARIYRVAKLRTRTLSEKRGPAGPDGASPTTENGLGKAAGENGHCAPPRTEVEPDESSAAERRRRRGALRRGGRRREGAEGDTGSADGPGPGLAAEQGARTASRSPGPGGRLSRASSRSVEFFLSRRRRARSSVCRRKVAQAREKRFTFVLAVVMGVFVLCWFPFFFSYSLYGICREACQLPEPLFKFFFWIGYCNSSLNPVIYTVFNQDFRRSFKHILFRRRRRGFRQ
T1 sequence (P19328 whole entry): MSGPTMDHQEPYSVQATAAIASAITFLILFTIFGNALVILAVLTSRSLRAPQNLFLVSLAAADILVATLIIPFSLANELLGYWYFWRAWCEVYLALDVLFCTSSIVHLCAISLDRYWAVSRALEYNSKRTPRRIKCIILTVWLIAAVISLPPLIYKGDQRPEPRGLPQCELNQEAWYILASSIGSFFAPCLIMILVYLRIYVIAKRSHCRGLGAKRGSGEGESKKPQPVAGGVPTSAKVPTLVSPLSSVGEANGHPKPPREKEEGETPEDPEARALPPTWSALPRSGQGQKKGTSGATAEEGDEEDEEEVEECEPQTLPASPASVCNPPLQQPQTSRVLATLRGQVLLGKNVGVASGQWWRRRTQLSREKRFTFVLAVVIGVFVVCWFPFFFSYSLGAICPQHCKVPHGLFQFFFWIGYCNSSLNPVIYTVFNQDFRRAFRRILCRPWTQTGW
T1 sequence (P22909 whole entry): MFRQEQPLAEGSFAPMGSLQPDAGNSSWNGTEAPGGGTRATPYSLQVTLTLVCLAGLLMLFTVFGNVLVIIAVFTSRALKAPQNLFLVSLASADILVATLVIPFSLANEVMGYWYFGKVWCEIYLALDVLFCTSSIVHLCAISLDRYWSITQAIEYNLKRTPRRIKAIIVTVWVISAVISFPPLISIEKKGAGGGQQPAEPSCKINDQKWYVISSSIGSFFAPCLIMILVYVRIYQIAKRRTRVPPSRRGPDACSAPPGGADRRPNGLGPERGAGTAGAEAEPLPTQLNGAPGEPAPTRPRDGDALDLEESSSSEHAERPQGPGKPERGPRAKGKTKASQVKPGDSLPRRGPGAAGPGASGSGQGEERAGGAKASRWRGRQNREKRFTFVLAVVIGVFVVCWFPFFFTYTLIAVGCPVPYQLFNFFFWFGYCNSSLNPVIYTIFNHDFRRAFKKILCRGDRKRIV

[2] = Relative affinity for alpha-2-adrenoceptor and phenylethanolamine N-methyl-transferase (PNMT); parameters: reference not given here
[3] = biological target: T2, Phenylethanolamine N-methyltransferase (Bos taurus, UniProt P10938); experiment: Inhibitory activity against bovine adrenal phenylethanolamine N-methyl-transferase (PNMT)
T2 sequence (P10938 whole entry): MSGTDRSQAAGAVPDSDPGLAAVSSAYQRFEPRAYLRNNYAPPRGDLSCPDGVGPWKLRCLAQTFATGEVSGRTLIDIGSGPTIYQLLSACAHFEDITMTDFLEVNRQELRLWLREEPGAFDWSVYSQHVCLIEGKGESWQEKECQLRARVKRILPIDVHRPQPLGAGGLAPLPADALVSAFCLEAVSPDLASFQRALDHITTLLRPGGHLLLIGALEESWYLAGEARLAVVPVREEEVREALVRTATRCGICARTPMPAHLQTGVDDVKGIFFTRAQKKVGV

SMILES | Log Ki [1] | Ki [3] | further results
NS(=O)(=O)c1ccc2c(c1)CN[C@H](C(F)(F)F)C2 | – | – | Ki [1]: 400 µM; Selectivity [2]: 26
CS(=O)(=O)c1ccc2c(c1)CN[C@H](C(F)(F)F)C2 | – | – | Selectivity [2]: 22
Oc1ccc2c3c(ccc2c1)CCNC3 | 7.1 | – | –
c1ccc2c(c1)CCCNC2 | 4.97 | – | –
C[C@H]1Cc2ccc(Cl)c(Cl)c2CN1 | 6.37 | 0.912 µM | –
Brc1ccc2c(c1)CNCC2 | – | 0.295 µM | –
CS(=O)(=O)c1ccc2c(c1)CNC(C(F)(F)F)C2 (stereo unspecified) | – | – | Ki [1]: 3900 µM; Selectivity [2]: 110
C[C@H]1Cc2ccc([N+](=O)[O-])cc2CN1 | 4.72 | – | –
CS(=O)(=O)c1ccc2c(c1)CNCCC2 | 3.82 | 7.76 µM | –
Brc1ccc2c(c1)CNCCC2 | 5.05 | 0.288 µM | –
c1ccc(Cc2ccc3c(c2)CNCC3)cc1 | 5.33 | 61.7 µM | –
Nc1ccc2c(c1)CNCC2 | 5.51 | – | –
COc1ccc2c(c1)CNCC2 | 6.33 | – | –
CN1CCCCc2ccccc2C1 | 5.39 | 1150 µM | –
O=[N+]([O-])c1ccc2c(c1)CNC(C(F)(F)F)C2 (stereo unspecified) | – | – | Ki [1]: 1500 µM; Selectivity [2]: 750
CNS(=O)(=O)c1ccc2c(c1)CNCC2 | 3.88 | – | –
C[C@H]1CCc2ccc(Cl)c(Cl)c2CN1 | 5.36 | 5.75 µM | –
O=C(c1ccc2c(c1)CNCC2)C(F)(F)F | 4.49 | – | –
O=[N+]([O-])c1ccc2c(c1)CNCCC2 | 4.18 | 0.389 µM | –
N#Cc1ccc2c(c1)CNC(C(F)(F)F)C2 (stereo unspecified) | – | – | Ki [1]: 2900 µM; Selectivity [2]: 220
NCc1cccc2ccccc12 | 5.79 | – | –
CSc1ccc2c(c1)CNCCC2 | 4.92 | 1.05 µM | –

SMILES | Log Ki [1] | Ki [3] | further results
O=C(c1ccccc1)c1ccc2c(c1)CNCC2 | 4.57 | – | –
COC(=O)c1ccc2c(c1)CNCC2 | 5.34 | – | –
NS(=O)(=O)c1ccc2c(c1)CNC(CO)C2 (stereo unspecified) | – | – | Selectivity [2]: 290
C[C@H](N)c1ccc(Cl)c(Cl)c1 | 4.44 | 5.01 µM | –
COc1ccc(OC)c2c1CCNC2 | 6.25 | 1000 µM | –
C[C@@H](N)c1ccccc1 | 3.54 | – | –
CSc1ccc2c(c1)CNCC2 | 6.39 | 0.617 µM | –
O=[N+]([O-])c1ccc2c(c1)CN[C@H](C(F)(F)F)C2 | – | – | Selectivity [2]: 25
C[C@H]1Cc2ccccc2CN1 | 6.31 | – | –
C[C@@H]1Cc2ccc(Cl)c(Cl)c2CN1 | 6.66 | 0.355 µM | –
OC[C@H]1Cc2ccc(Cl)c(Cl)c2CN1 | – | – | Selectivity [2]: 0.32
NS(=O)(=O)c1ccc2c(c1)CN[C@@H](C(F)(F)F)C2 | – | – | Selectivity [2]: 61
COc1cccc2c1CNCC2 | 6.52 | – | –
Ic1ccc2c(c1)CNCC2 | 6.66 | – | –
NS(=O)(=O)c1ccc2c(c1)CNCCC2 | 3.82 | 1.66 µM | –
Oc1ccc2c(c1)CCNC2 | 6 | 5.75 µM | –
OCC1Cc2ccc(Cl)c(Cl)c2CN1 (stereo unspecified) | – | – | Selectivity [2]: 0.39
OC[C@H]1Cc2ccccc2CN1 | 5.36 | – | –
C[C@@H]1Cc2sc3ccccc3c2CN1 | – | – | Selectivity [2]: 0.08
COc1ccc2c3c(ccc2c1)CCNC3 | – | 14.1 µM | –
C[C@@H](N)c1ccc(Cl)c(Cl)c1 | 4.39 | 32.4 µM | –
OC[C@@H]1Cc2ccc(Cl)c(Cl)c2CN1 | – | – | Selectivity [2]: 2.1

SMILES | Log Ki [1] | Ki [3] | further results
OCc1ccc2c(c1)CNCC2 | 5.64 | – | –
Oc1ccc2c(c1)CNCC2 | 5.65 | – | –
CC1Cc2sc3ccccc3c2CN1 (stereo unspecified) | – | – | Selectivity [2]: 1.3
c1ccc2c(c1)CCCCNC2 | 4.81 | – | –
Oc1cccc2c1CCNC2 | 6.11 | – | –
O=S(=O)(c1ccccc1)c1ccc2c(c1)CNCC2 | 4.67 | – | –
NC(=O)c1ccc2c(c1)CNCC2 | 4.64 | – | –
FC(F)(F)[C@H]1Cc2ccccc2CN1 | – | – | Selectivity [2]: 0.05
N#Cc1ccc2c(c1)CNCC2 | 5.14 | – | –
OC[C@@H]1Cc2ccccc2CN1 | 4.77 | – | –
FC(F)(F)[C@@H]1Cc2ccc(Br)cc2CN1 | – | – | Selectivity [2]: 2.6
Clc1ccc2c(c1Cl)CNCCC2 | 5.39 | – | –
C=CCS(=O)(=O)c1ccc2c(c1)CNCC2 | 4.02 | – | –
FC(F)(F)C1Cc2ccc(Br)cc2CN1 (stereo unspecified) | – | – | Ki [1]: > 1000 µM; Selectivity [2]: > 1900
N#Cc1ccc2c(c1)CN[C@H](C(F)(F)F)C2 | – | – | Selectivity [2]: 1.4
O=[N+]([O-])c1cc2c(c([N+](=O)[O-])c1)CCNC2 | 4.11 | 57.5 µM | –
NCc1ccc2c(c1)CNCC2 | 4.92 | – | –
FC(F)(F)c1ccc2c(c1)CNCC2 | 5.89 | 0.182 µM | –
Nc1ccc2c(c1)CNCCC2 | 3.96 | 24 µM | –
Oc1cc2c(cc1O)CNCC2 | 6.32 | 3.89 µM | –
C[C@@H]1Cc2ccc([N+](=O)[O-])cc2CN1 | 4.28 | – | –
CC(=O)c1ccc2c(c1)CNCC2 | 5.21 | – | –

SMILES | Log Ki [1] | Ki [3] | further results
C[C@H](N)c1ccccc1 | 3.92 | – | –
c1ccc2c(c1)CNCCN2 | 5.58 | – | –
O=C(O)c1ccc2c(c1)CNCC2 | 3.33 | – | –
c1ccc2c(c1)CCNC2 [1,2,3,4-TETRAHYDROISOQUINOLINE] | 6.45 | – | –
Oc1cccc2c1CNCC2 | 6.14 | 603 µM | –
O=[N+]([O-])c1ccc2c(c1)CN[C@@H](C(F)(F)F)C2 | – | – | Selectivity [2]: 240
C[C@H]1Cc2sc3ccccc3c2CN1 | – | – | Ki [1]: 1400 µM; Selectivity [2]: 4100
C[C@@H]1Cc2ccccc2CN1 | 5.24 | – | –
Clc1ccc2c(c1Cl)CNCC2 | 7.66 | – | –
O=[N+]([O-])c1cc2c(c([N+](=O)[O-])c1)CCCNC2 | 4.6 | 36.3 µM | –
COC(=O)Nc1ccc2c(c1)CNCC2 | 5.04 | 186 µM | –
CS(=O)(=O)c1ccc2c(c1)CN[C@@H](C(F)(F)F)C2 | – | – | Selectivity [2]: 190
COc1cccc2c1CCNC2 | 6.89 | – | –
FC(F)(F)C1Cc2ccccc2CN1 (stereo unspecified) | – | – | Ki [1]: 400 µM; Selectivity [2]: 26
CN1CCc2ccccc2C1 | 6.62 | 50.1 µM | –
FC(F)(F)[C@H]1Cc2ccc(Br)cc2CN1 | – | – | Selectivity [2]: 0.83
Cc1ccc2c(c1)CNCC2 | 6.44 | 2.69 µM | –
N#Cc1ccc2c(c1)CN[C@@H](C(F)(F)F)C2 | – | – | Selectivity [2]: 15
C[C@@H]1CCc2ccc(Cl)c(Cl)c2CN1 | 5.56 | 0.417 µM | –
O=S(=O)(c1ccc2c(c1)CNCC2)C(Cl)(Cl)Cl | 4.47 | 1.26 µM | –
O=[N+]([O-])c1ccc2c(c1)CNCCCC2 | 4.08 | 4.57 µM | –
